According to US9029639B2, “Pyridazine compounds for controlling invertebrate pests” (BASF SE, priority 2009, dated 2015):

Tested on: Cowpea aphid (Aphis craccivora)
Assay: Activity against cowpea aphid (Aphis craccivora), spray on potted cowpea plants
Assay type: in vivo
Conditions: population reduction assessed after 24, 72 and 120 hours, read-out: mortality in comparison with untreated controls
Protocol: II.3 Activity Against Cowpea Aphid (Aphis craccivora)
The active compounds were formulated in 50:50 (vol:vol) acetone:water. The test solution was prepared at the day of use.
Potted cowpea plants colonized with 100-150 aphids of various stages were sprayed after the pest population had been recorded. Population reduction was assesed after 24, 72, and 120 hours.

## Cc1nc(C(=O)N(C)c2ccnnc2)cs1 [Compound 5, 2-Methyl-thiazole-4-carboxylic acid methyl-pyridazin-4-yl-amide]
  mortality at 300 ppm: ≥ 90%
